# Results taken from patent EP0732399A2 (CEPHALON, INC., priority 1990, dated 1991).
# Where “and” joins values, the source holds several entries; their conditions need not be identical. Equal values may be shown once. Entries after “also recorded” stand apart in the source; their conditions may differ. Read-outs that look alike come from different tables or passages of the source. Square brackets hold non-standard residues; d marks the D form. Peptide text beside a SMILES is read from it. * marks the point of attachment. Sta = CC(C)C[C@H](N)[C@@H](O)CC(=O)O; Isovaleryl = CC(C)CC(=O)*; MeOSuc = COC(=O)CCC(=O)*; CH2Cl = ClC*
# Key:
# chymase [1] = target: T1, chymase (Rattus norvegicus, UniProt P09650); test: Inhibition of purified brain chymase (pNa substrate hydrolysis); format: biochemical
# T1 construct: Starting from 18g rat brain, approximately 10µg homogeneous chymase was obtained; from tissue; host or cells: rat forebrain (5-7 day old pups)
# T1 sequence (P09650 21-260): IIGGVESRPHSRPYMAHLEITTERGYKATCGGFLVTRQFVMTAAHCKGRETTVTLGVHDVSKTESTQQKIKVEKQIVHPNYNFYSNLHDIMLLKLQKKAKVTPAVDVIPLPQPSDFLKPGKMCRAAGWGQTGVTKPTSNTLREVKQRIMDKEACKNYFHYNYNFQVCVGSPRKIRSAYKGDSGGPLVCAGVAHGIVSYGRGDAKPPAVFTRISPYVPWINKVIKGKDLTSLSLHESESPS
# Method: (§1) During the various protease purification steps, protease activity of all fractions was measured using chromogenic or fluorogenic peptide analogs as substrates. Other methods are available, known to those skilled in the art. One specific example of an activity measurement is described here. Protease activity assays were performed in 96 well microtiter plates, in a total volume of 0.2 mls. Substrates were prepared as 10-20X concentrated stock solutions in DMSO. Therefore, each reaction contained 5-10% DMSO. Reactions were initiated by addition of protease-containing samples to wells already containing substrates, and were maintained at 37°C. Control wells received either protease without substrate, or substrate without protease. The release of reporter moities by proteolytic cleavage was followed as a function of time by either spectrophotometry (e.g., for pNa substrates, change in absorbance with time at 405 nm) or fluorimetry (e.g., for AMC substrates, change in fluorescence with time using excitation at 390 nm and emission at 460 nm). Maximum velocity of reactions was determined while substrate hydrolysis increased linearly as a function of time.
# [2] = tested on: human brain multicatalytic protease; format: biochemical; conditions: qualitative, no concentration stated
# Method: as §1
# Human cerebral cortex (courtesy National Neurological Research Bank, Los Angeles, CA.) was obtained at autopsy and stored at -70°C until use. All procedures were conducted at 4 °C unless noted otherwise. […] Triton X-100 was added to 0.5%, the homogenate was stirred for 1 hr., then centrifuged at 40,000 x g for 1 hr. The supernatant, containing the multicatalytic protease, was dialyzed against 20 mM Tris-HCl (pH 8.0),1% glycerol. The following day, the dialysate was loaded on a column (150 ml bed volume) of DEAE-Sepharose Fast Flow (Pharmacia, Piscataway, N.J.) equilibrated in the dialysis buffer. Unbound material was removed with ∼300 mls dialysis buffer, then bound material was eluted with a linear NaCl gradient from 0 mM to 400 mM (1.5 liters total). Fractions of 15 ml were collected and assayed for multicatalytic protease activity (see below).
# chymase [3] = test: Purified chymase; conditions: rat, room temperature, up to 48 hrs
# cathepsin G [4] = test: cathepsin G; conditions: 37°C
# chymotrypsin [5] = test: chymotrypsin; conditions: 37°C
# chymase [6] = test: purified rat brain chymase; conditions: 37°C
# [7] = high salt extract preparation (1 M MgCl2) of human brain samples
# cathepsin G [8] = test: cathepsin G (Fig. 6 panel C); conditions: 37°C
# chymotrypsin [9] = test: chymotrypsin (Fig. 6 panel B); conditions: 37°C
# chymase [10] = test: human brain chymase purified from human cerebral cortex; conditions: 37°C
# multicatalytic protease [11] = test: multicatalytic protease purified from human brain; conditions: 37°C
# chymase [12] = target: T1, chymase; test: Substrate cleavage by brain chymase; format: biochemical
# Method: as §1
# multicatalytic protease [13] = target: T2, multicatalytic protease (Homo sapiens, UniProt P28074); test: Substrate cleavage by multicatalytic protease; format: biochemical
# T2 construct: Human cerebral cortex (courtesy National Neurological Research Bank, Los Angeles, CA.) was obtained at autopsy; from tissue; host or cells: human cerebral cortex, post mortem
# Method: as §1
# Human cerebral cortex (courtesy National Neurological Research Bank, Los Angeles, CA.) was obtained at autopsy and stored at -70°C until use. All procedures were conducted at 4 °C unless noted otherwise. […]
# cathepsin G [14] = target: T3, cathepsin G (Homo sapiens, UniProt P08311); test: Substrate cleavage by cathepsin G; format: biochemical
# T3 sequence (P08311 21-255): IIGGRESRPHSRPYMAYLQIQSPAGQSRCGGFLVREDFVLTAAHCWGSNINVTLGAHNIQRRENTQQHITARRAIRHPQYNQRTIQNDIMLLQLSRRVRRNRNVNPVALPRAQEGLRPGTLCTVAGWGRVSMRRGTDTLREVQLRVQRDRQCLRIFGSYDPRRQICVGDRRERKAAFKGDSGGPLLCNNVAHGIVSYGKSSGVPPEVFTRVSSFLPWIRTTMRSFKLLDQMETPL
# Method: as §1
# (§2) Contrary to expectation, not all chymotrypsin-like proteases were able to cleave MeOSuc-Glu-Val-Lys-Met-pNa (Figure 6; EVKM using the one letter amino acid code). […]
# chymotrypsin [15] = test: Substrate cleavage by chymotrypsin; format: biochemical
# Method: as §1, §2
# human brain chymase = target: T4, human brain chymase (Homo sapiens, UniProt P23946)
# T4 sequence (P23946 22-247): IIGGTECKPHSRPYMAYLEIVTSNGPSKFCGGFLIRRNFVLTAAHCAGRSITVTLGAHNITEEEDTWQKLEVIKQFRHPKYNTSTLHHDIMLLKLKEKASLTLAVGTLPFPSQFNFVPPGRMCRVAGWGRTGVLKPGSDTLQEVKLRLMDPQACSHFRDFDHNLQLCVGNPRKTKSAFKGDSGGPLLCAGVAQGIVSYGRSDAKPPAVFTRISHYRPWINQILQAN
# Excerpt: Samples obtained post-mortem from human cerebral cortex (courtesy of the National Neurological Research Bank) were fractionated as described above for preparation of rat brain chymase. […] Protease was further purified on a heparin-Sepharose column in a manner similar to purification of rat brain chymase. […] The enzyme bound to the column in 0.4 M NaCl and was eluted by increasing the NaCl concentration to 0.7-0.9 M.
# Next, chymase was purified using a chymase inhibitor coupled to resin, lima bean trypsin inhibitor-agarose (Sigma, St. Louis, MO.). […] Chymase-containing fractions from the heparin eluate were pooled, concentrated to 10 ml, and loaded on a 1 ml bed volume of lima bean trypsin inhibitor-agarose. The column was washed with Hepes buffer containing 0.5 M NaCl (5 vol), then with water (5 vol). Chymase was eluted with 2 mM HCl, and was immediately neutralized with Tris-HCl (0.2 M final concentration, pH 8.0) containing 0.5 M NaCl.
compound,measurement,setting,value
COC(=O)CCC(=O)N[C@@H](CCC(=O)O)C(=O)N[C@H](C(=O)N[C@@H](CCCCN)C(=O)N[C@@H](Cc1ccccc1)C(=O)CCl)C(C)C (MeOSuc-EVKF-CH2Cl),Ki,chymase [1]; Ki,< 20 nM
"COC(=O)CCC(=O)N[C@@H](CCC(=O)O)C(=O)N[C@H](C(=O)N[C@@H](CCCCN)C(=O)N[C@H](C=O)Cc1ccccc1)C(C)C [MeOSuc-Glu-Val-Lys-Phe-al, MeOSuc-Glu-Val-Lys-Phenylalaninal] (MeOSuc-EVKF-aldehyde)",Ki,chymase [1]; read-out: Ki,< 20 nM and 15 nM
CC(C)C[C@H](NC(=O)[C@@H](NC(=O)N[C@@H](Cc1ccccc1)C(=O)O)[C@@H]1CCN=C(N)N1)C(=O)N[C@H](C=O)Cc1ccccc1 [chymostatin],inhibition of multicatalytic protease activity,[2],inhibition
CC(=O)N[C@@H](CC(C)C)C(=O)N[C@@H](CC(C)C)C(=O)N[C@H](C=O)CCCNC(=N)N [leupeptin],inhibition of multicatalytic protease activity,[2],not
c1cnc2c(c1)ccc1cccnc12 [o-phenanthroline],inhibition of multicatalytic protease activity,[2],not
CC(C)CC(=O)N[C@H](C(=O)N[C@H](C(=O)N[C@@H](CC(C)C)[C@@H](O)CC(=O)N[C@@H](C)C(=O)N[C@@H](CC(C)C)[C@@H](O)CC(=O)O)C(C)C)C(C)C [pepstatin] (Isovaleryl-VV[Sta]A[Sta]-OH),inhibition of multicatalytic protease activity,[2],not
O=S(=O)(F)Cc1ccccc1 [phenylmethylsulfonylfluoride],inhibition of multicatalytic protease activity,[2],not
Glu-Val-Lys-Met-Asp-Ala-Glu-Phe-Arg-His-Asp-Ser-Gly-Tyr-Glu-Val-His-His-Gln,cleaved bond,chymase [3],"Met596-Asp597, 45 minutes"
MeOSuc-Ala-Ala-Pro-Met-pNa,cleaved bond,cathepsin G [4],Met-pNa
same,cleaved bond,chymotrypsin [5],Met-pNa
same,cleaved bond,chymase [6],Met-pNa
MeOSuc-Ala-Ala-Pro-Phe-pNa,cleaved bond,[7],Phe-pNa
MeOSuc-Glu-Val-Lys-Met-pNa,cleaved bond,chymase [6],Met-pNa
same,not cleaved,cathepsin G [8],essentially without effect
same,not cleaved,chymotrypsin [9],essentially without effect
same,cleaved bond,chymase [10],Met-pNa
same,cleaved bond,multicatalytic protease [11],Met-pNa
MeOSuc-Glu-Val-Lys-Phe-pNa,cleaved bond,chymase [6],Phe-pNa
Suc-Ala-Ala-Pro-Phe-pNa,cleaved bond,chymase [6],Phe-pNa
same,cleaved bond,chymase [10],Phe-pNa
methoxysuccinyl-glutamyl-valyl-lysyl-methionine-p-nitroanili de [MeOSuc-Glu-Val-Lys-Met-pNa],substrate cleavage by chymase,chymase [12],readily degraded
same,substrate cleavage by multicatalytic protease,multicatalytic protease [13],readily degraded; also recorded: unusual ability to cleave
same,substrate cleavage by cathepsin G,cathepsin G [14],essentially without effect
same,substrate cleavage by chymotrypsin,chymotrypsin [15],essentially without effect
same,substrate hydrolysis by human brain chymase,human brain chymase,hydrolyzed
